From patent US9120804B2, “8-substituted 2-amino-[1,2,4] triazolo [1, 5-A] pyrazines as Syk tryrosine kinase inhibitors and GCN2 serin kinase inhibitors” (Merck Patent GmbH, priority 2012, dated 2015)
Structures can show the parent of a compound that is named as a salt.

How the values were obtained:
[1] = target: T1, SYK (Homo sapiens, UniProt P43405); assay: SYK flash plate assay (enzyme assay); assay type: biochemical
T1 construct: 2.5 nM SYK, 400 nM Biotin-Aha-Aha-KEDPDYEWPSAKK
Procedure, shortened: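 Radiometric Flashplate format: biotinylated peptide substrate (400 nM) and 33P-labelled ATP (10 μM) react with 2.5 nM enzyme for 1 hour at 30 °C in Hepes buffer, pH 7.5. After EDTA quench and washing, counts are taken; staurosporine defines non-specific signal, and IC50 values are derived.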

[2] = target: GCN2 (Homo sapiens, UniProt Q9P2K8); assay: GCN2 enzyme assay; assay type: biochemical
Chain of GCN2 (Q9P2K8 whole entry): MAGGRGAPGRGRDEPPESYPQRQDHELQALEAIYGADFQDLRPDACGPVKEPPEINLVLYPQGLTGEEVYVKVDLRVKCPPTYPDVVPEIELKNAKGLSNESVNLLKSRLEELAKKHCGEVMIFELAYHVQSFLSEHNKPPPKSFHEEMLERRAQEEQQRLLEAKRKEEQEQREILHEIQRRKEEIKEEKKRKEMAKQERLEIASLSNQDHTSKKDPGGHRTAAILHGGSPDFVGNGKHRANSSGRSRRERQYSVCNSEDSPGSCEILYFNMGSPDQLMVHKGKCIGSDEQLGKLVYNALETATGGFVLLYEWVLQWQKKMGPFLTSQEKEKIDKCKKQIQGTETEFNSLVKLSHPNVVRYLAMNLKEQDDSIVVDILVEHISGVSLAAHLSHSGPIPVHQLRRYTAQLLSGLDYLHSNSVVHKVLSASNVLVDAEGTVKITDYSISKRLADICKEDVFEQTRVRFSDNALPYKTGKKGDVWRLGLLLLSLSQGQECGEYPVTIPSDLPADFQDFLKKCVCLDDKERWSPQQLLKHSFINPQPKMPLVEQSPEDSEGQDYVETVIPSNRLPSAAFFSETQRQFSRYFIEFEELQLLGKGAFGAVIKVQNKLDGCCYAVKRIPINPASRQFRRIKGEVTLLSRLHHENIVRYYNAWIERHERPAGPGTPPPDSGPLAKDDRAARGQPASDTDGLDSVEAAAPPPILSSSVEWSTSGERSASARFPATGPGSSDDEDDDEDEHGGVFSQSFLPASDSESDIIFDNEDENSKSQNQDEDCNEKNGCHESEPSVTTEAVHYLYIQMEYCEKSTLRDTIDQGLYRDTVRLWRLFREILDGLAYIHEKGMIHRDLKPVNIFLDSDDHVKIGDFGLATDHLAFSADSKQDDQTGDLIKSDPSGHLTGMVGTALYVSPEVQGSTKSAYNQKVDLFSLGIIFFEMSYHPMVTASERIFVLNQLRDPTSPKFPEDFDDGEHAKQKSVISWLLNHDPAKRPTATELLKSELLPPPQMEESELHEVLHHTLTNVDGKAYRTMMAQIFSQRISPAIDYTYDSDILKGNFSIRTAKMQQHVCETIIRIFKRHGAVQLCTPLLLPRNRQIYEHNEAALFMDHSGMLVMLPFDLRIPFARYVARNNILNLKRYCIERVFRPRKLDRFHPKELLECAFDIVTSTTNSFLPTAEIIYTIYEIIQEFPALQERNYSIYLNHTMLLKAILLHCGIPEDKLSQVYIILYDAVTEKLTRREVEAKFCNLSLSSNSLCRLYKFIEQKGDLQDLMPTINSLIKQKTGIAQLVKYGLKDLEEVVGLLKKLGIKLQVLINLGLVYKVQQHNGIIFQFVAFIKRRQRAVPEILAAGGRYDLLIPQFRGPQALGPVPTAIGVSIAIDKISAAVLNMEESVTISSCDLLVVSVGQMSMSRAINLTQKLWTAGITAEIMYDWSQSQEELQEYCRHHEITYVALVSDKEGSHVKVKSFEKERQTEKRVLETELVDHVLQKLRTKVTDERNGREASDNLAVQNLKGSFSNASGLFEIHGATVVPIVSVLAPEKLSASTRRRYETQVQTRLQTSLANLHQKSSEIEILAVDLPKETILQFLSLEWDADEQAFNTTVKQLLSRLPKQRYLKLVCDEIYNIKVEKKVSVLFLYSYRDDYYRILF

IC50 [1] | IC50 [2] | Structure (SMILES)
< 0.1 µM | 3 to 50 µM | CC1(C)C(=O)Nc2cc(Nc3nc4c(N5CCC(F)(F)C5)nccn4n3)ccc21 [C105, 6-[8-(3,3-difluoro-pyrrolidin-1-yl)-[1,2,4]triazolo[1,5-a]pyrazin-2-ylamino]-3,3-dimethyl-1,3-dihydro-indol-2-one]
0.3 to 3 µM | 3 to 50 µM | Cn1cc(Nc2nc3c(-c4cnn(C)c4)nccn3n2)cn1 [C26, (1-Methyl-1H-pyrazol-4-yl)-[8-(1-methyl-1H-pyrazol-4-yl)-[1,2,4]triazolo[1,5-a]pyrazin-2-yl]-amine]
0.1 to 0.3 µM | 3 to 50 µM | CC1(C)C(=O)Nc2cc(Nc3nc4c(N5CC[C@@H](O)C5)nccn4n3)ccc21 [C73, 6-[8-((R)-3-hydroxy-pyrrolidin-1-yl)-[1,2,4]triazolo[1,5-a]pyrazin-2-ylamino]-3,3-dimethyl-1,3-dihydro-indol-2-one]
0.1 to 0.3 µM | 0.3 to 3 µM | CC1(C)C(=O)Nc2cc(Nc3nc4c(-c5ccc(S(C)(=O)=O)cc5)nccn4n3)ccc21 [C70, 6-[8-(4-Methanesulfonyl-phenyl)-[1,2,4]triazolo[1,5-a]pyrazin-2-ylamino]-3,3-dimethyl-1,3-dihydro-indol-2-one]
0.3 to 3 µM | 0.3 to 3 µM | Cc1nc2cc(Nc3nc4c(-c5ccc(S(C)(=O)=O)cc5)nccn4n3)ccc2[nH]1 [C58, [8-(4-methanesulfonyl-phenyl)-[1,2,4]triazolo[1,5-a]pyrazin-2-yl]-(2-methyl-1H-benzoimidazol-5-yl)-amine]
< 0.1 µM | 3 to 50 µM | CC1(C)C(=O)Nc2cc(Nc3nc4c(N5CCC[C@H](N)C5)nccn4n3)ccc21 [C99, 6-[8-((S)-3-amino-piperidin-1-yl)-[1,2,4]triazolo[1,5-a]pyrazin-2-ylamino]-3,3-dimethyl-1,3-dihydro-indol-2-one]
0.1 to 0.3 µM | 0.3 to 3 µM | CN(C)Cc1nc2ccc(Nc3nc4c(-c5cnn(C)c5)nccn4n3)cc2[nH]1 [C33, (2-Dimethylaminomethyl-3H-benzoimidazol-5-yl)-[8-(1-methyl-1H-pyrazol-4-yl)-[1,2,4]triazolo[1,5-a]pyrazin-2-yl]-amine]
0.1 to 0.3 µM | 3 to 50 µM | N#CC1(c2ccc(Nc3nc4c(-c5cn[nH]c5)nccn4n3)cc2)CC1 [C65, 1-{4-[8-(1H-pyrazol-4-yl)-[1,2,4]triazolo[1,5-a]pyrazin-2-ylamino]-phenyl}-cyclopropanecarbonitrile]
3 to 50 µM | 3 to 50 µM | COc1cc(Nc2nc3c(N4CCCC(C(=O)NCCO)C4)nccn3n2)cc(OC)c1 (centres unmarked) [C45, 1-[2-(3,5-dimethoxy-phenylamino)-[1,2,4]triazolo[1,5-a]pyrazin-8-yl]-piperidine-3-carboxylic acid (2-hydroxy-ethyl)-amide]
3 to 50 µM | 0.3 to 3 µM | Cn1cc(-c2nccn3nc(Nc4cnn(C5CCNCC5)c4)nc23)cn1 [C28, [8-(1-Methyl-1H-pyrazol-4-yl)-[1,2,4]triazolo[1,5-a]pyrazin-2-yl]-(1-piperidin-4-yl-1H-pyrazol-4-yl)-amine hydrochloride]
